Patent US6375979B2 (Somerset Pharmaceuticals, Inc., priority 1995, dated 2002)
Where “and” joins values, the source holds several entries; their conditions need not be identical. Equal values may be shown once. Read-outs that look alike come from different tables or passages of the source.

Tests used:
[1] = target: T1, dopamine re-uptake system (Rattus norvegicus, UniProt P23977); test: Inhibition of dopamine re-uptake in rat neostriatal synaptosome preparation; assay type: biochemical
T1 construct: (synaptosome preparation) was obtained form fresh rat neostriatal brain tissue; from tissue; host or cells: rat neostriatum, synaptosome preparation
T1 sequence (P23977 whole entry): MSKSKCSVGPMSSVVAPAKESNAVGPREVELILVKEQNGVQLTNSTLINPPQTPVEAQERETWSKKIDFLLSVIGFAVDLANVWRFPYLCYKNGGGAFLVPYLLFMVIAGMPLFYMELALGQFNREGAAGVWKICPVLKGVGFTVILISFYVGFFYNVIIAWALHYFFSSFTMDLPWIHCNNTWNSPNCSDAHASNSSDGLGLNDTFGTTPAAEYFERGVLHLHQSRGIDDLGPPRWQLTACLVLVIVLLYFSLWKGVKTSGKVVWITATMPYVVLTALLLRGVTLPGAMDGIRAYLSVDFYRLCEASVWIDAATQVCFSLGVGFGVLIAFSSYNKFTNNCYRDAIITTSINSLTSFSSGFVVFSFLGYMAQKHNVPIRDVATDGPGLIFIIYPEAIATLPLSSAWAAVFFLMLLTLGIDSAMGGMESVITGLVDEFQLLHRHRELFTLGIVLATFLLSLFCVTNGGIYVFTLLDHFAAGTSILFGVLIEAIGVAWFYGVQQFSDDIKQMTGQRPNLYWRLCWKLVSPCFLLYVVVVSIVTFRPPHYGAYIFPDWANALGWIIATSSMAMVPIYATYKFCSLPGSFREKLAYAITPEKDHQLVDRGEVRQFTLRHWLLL
Description: An in vitro nerve terminal preparation (synaptosome preparation) was prepared using fresh rat neostriatal tissue.
FIG. 19: Determination of IC50 Values for Inhibition of Dopamine Re-Uptake.
An in vitro nerve-terminal preparation (synaptosome preparation) was obtained form fresh rat neostriatal brain tissue. Transport by dopamine nerve-terminals was estimated by measuring the uptake of tritiated dopamine.

[2] = system: cultured rat mesencephalic cells; test: Medium change (glutamate receptor dependent) model of cell death: [3H]-dopamine uptake; details: for neuron protection by measurement of dopamine uptake (FIG. 15): glutamate receptor dependent model
Description: Preparations are then added to 10 ml Ecoscint (National Diagnostics) and counted in a scintillation spectrometer.
(§2) In these experiments, cells were plated and allowed to stabilize for several days.

[3] = system: cultured embryonic mesencephalic cells; test: Neuronal survival: [3H]dopamine uptake by cultured mesencephalic cells; assay type: cell-based, rat
Source text: The amount of uptake by the cultured brain cells corresponds to axonal growth.

interleukin-2 production = test: Concanavalin A-induced interleukin-2 production by spleen cells of treated old rats; assay type: in vivo, rat; details: ip daily 60 days
Description: The present experiments utilized a rat model to examine the ability of R(−)DMS and S(+)DMS to restore immunological function. Rats were divided into the following experimental groups:
(§1) Rats were administered saline or test agent ip, daily for 60 days. They were then maintained for an additional “wash out” period of 10 days during which time no treatment was given. At the end of this time, animals were sacrificed and their spleens were removed. The spleen cells were then assayed for a variety of factors which are indicative of immune system function. Specifically, standard tests were employed to determine the following:
2) in vitro concanavalin A-induced production of interleukin-2;

γ-interferon production = γ-interferon production by concanavalin A-stimulated spleen cells of treated old rats; assay type: in vivo, rat; details: old rats, ip daily 60 days; 1.0 mg/kg (for DMS enantiomers)
Description: Rats were divided into the following experimental groups:
as §1
1) in vitro production of γ-interferon by concanavalin A-stimulated spleen cells;

MAO-A [4] = target: T2, MAO-A (Rattus norvegicus, UniProt P21396)
T2 sequence (P21396 1-526): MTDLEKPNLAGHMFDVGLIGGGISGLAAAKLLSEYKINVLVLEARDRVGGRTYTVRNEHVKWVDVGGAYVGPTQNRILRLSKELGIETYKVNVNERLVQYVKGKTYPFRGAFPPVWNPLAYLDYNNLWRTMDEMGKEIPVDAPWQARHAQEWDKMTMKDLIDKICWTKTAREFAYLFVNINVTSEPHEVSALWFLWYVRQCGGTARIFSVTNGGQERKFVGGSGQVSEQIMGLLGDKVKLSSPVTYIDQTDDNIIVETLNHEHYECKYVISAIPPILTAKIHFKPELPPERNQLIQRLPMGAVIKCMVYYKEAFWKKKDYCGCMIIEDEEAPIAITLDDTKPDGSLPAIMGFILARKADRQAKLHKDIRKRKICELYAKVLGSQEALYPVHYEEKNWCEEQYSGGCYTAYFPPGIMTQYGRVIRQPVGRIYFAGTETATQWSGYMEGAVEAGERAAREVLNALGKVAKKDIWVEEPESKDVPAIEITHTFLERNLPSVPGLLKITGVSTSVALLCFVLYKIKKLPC

[5] = system: cultured rat mesencephalic cells exposed to NMDA; test: NMDA model of cell death: TH immunochemistry; details: 50 μM, 100 μM NMDA exposure
Description: Rat mesencephalic cell cultures were exposed to 100 μM NMDA and incubated as described above in connection with FIG. 16.

[6] = system: cultured rat mesencephalic cells exposed to NMDA; test: NMDA model of cell death: [3H]-dopamine uptake; details: 50 μM, 100 μM NMDA exposure
[7] = system: cultured rat mesencephalic cells; test: Medium change (glutamate receptor dependent) model of cell death: TH positive cells
Description: as §2

[8] = system: TH positive cells in cultured E-14 embryonic mesencephalic cells
MAO-A [9] = target: T3, MAO-A (Cavia porcellus, UniProt H0UVA2); test: MAO-A inhibition in guinea pig hippocampal homogenates in vitro; assay type: biochemical; design: by human platelets and/or guinea pig hippocampal homogenates; from tissue; host or cells: guinea pig hippocampus homogenate
T3 sequence (H0UVA2 1-461): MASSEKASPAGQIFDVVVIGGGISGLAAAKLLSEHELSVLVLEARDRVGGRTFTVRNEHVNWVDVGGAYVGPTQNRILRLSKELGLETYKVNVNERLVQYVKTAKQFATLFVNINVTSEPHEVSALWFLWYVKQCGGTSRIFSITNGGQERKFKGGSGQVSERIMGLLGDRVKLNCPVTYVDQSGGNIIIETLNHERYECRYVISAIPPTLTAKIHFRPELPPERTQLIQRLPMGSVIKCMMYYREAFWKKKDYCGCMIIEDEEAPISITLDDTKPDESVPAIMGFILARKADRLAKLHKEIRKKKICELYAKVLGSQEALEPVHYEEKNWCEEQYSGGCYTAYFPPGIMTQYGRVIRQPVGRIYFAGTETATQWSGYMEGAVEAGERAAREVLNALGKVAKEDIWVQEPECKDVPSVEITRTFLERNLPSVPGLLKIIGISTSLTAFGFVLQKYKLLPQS
Source text: Human platelet MAO is comprised exclusively of the type-B isoform of the enzyme. […] The present study also examined the two enantiomers of DMS for inhibitory activity with respect to the MAO-A and MAO-B in guinea pig hippocampal tissue. Guinea pig brain tissue is an excellent animal model for studying brain dopamine metabolism, the enzyme kinetics of the multiple forms of MAO and the inhibitory properties of novel agents that interact with these enzymes. The multiple forms of MAO in this animal species show similar kinetic properties to those found in human brain tissue. Finally, the test agents were administered to guinea pigs and the extent to which they might act as inhibitors of brain MAO in vivo was assessed.
In vitro: The test system utilized the in vitro conversion of specific substrates of MAO-A (^14C-serotonin) and MAO-B (^14C-phenylethylamine) by human platelets and/or guinea pig hippocampal homogenates. […] A percent inhibition was calculated from these values.

[10] = 1.0 mg/kg (for DMS enantiomers)
[11] = 50 μM, medium change model, listed as Deprenyl

With `NCCc1ccc(O)c(O)c1` [Dopamine, dopamine, reference compound] the “3H-Dopamine uptake, % Reduction x ± SEM” value ([1]; 1 μM) was 52.0 ± 4.9% and the “3H-Dopamine uptake, % Reduction x ± SEM” value ([1]; 10 μM) was 80.9 ± 0.4%.

`C[C@]12N[C@H](Cc3ccccc31)c1ccccc12` [MK-801, reference compound] was tested, and the “neuron protection by measurement of dopamine uptake (FIG. 15)” value (“neuron protection by measurement” below) ([2]; 10 μM) was “protection was also obtained”.

In the case of `C#CCN(C)Cc1ccccc1` [Pargyline, pargyline, reference compound], the “neuron protection by measurement” value ([2]; at the concentrations used (0.5, 5 and 50 μM)) is reported as “did not appear to offer any protection”.

`C#CCN(C)[C@H](C)Cc1ccccc1` [Selegiline, R-(−)-N-methyl-N-(prop-2-ynyl)-2-aminophenylpropane, reference compound] was tested, and the “3H-Dopamine Uptake, % Cont” value ([3]; 0.5 μM) was 120.6%, the “3H-Dopamine Uptake, Mean” value ([3]; 0.5 μM) was 14452 ± 212 and the “3H-Dopamine Uptake, % Cont” value ([3]; 5 μM) was 137.5%. The “3H-Dopamine Uptake, Mean” value ([3]; 5 μM) was 16468 ± 576, the “3H-Dopamine Uptake, % Cont” value ([3]; 50 μM) was 275.5% and the “3H-Dopamine Uptake, Mean” value ([3]; 50 μM) was 33018 ± 1317. For the same compound, the “3H-Dopamine uptake, % Reduction x ± SEM” value ([1]; 1 μM) was 13.9 ± 4.7%, the “3H-Dopamine uptake, % Reduction x ± SEM” value ([1]; 10 μM) was 16.3 ± 3.8% and the “3H-Dopamine uptake, % Reduction x ± SEM” value ([1]; 100 μM) was 7.0 ± 3.6%. For the same compound, the “3H-Dopamine uptake, % Reduction x ± SEM” value ([1]; 100 μM (last row of each agent)) was 59.8 ± 1.0%, the IL-2 % control (interleukin-2 production; [10]) was 376% and the “IL-2 U/ml mean” value (interleukin-2 production; [10]) was 73.78 U/ml. For the same compound, the “IL-2 U/ml mean” value (interleukin-2 production; […] (for R(−)DMS by group order)) was 109.6 U/ml, the IFN-γ % control (γ-interferon production) was 550% and the “IFN-γ U/ml mean” value (γ-interferon production) was 1934 U/ml. The inhibition (MAO-A [4]; 0.3 µM) was 9.75%, the inhibition (MAO-A [4]; 1 μM) was 32.5% and the inhibition (MAO-A [4]; 3 µM) was 65.5%. The inhibition (MAO-A [4]; 10 μM) was 97.8%, the “TH Immunochemistry, % control, Mean” value [5] was 234.3% and the “TH Immunochemistry, cells/cm^2, Mean” value [5] was 220.63 cells/cm^2. The “TH Immunochemistry, % control, individual cultures” value ([5]; listed as Deprenyl) was 244.2% and 305.3% and 199.1% and 188.5%, the “TH Immunochemistry, cells/cm^2, individual cultures” value ([5]; listed as Deprenyl) was 230.0 cells/cm^2 and 287.5 cells/cm^2 and 187.5 cells/cm^2 and 177.5 cells/cm^2 and the “Dopamine uptake, % control, Mean” value [6] was 257.4%. The “Dopamine uptake, counts/min, Mean” value [6] was 17393.8 counts/min, the “Dopamine uptake, % control, individual cultures” value ([6]; listed as Deprenyl) was 228.1% and 273.5% and 251.0% and 259.8% and 274.9% and the “Dopamine uptake, counts/min, individual cultures” value ([6]; listed as Deprenyl) was 15410 counts/min and 18479 counts/min and 16958 counts/min and 17550 counts/min and 18572 counts/min. The “TH Immunochemistry, % control, Mean” value ([7]; 50 μM, medium change model) was 130.6%, the “TH Immunochemistry, cells/cm^2, Mean” value ([7]; 50 μM, medium change model) was 344.17 cells/cm^2 and the “TH Immunochemistry, % control, individual cultures” value [7, 11] was 146.0% and 124.2% and 121.4%. For the same compound, the “TH Immunochemistry, cells/cm^2, individual cultures” value [7, 11] was 385.0 cells/cm^2 and 327.5 cells/cm^2 and 320.0 cells/cm^2, the “survival of dopaminergic neurons (FIGS. 11 and 12)” value ([7]; 0.5, 5.0 or 50 μM, 4 days of daily medium changes, TH staining and dopamine uptake) was “promotes the survival of dopaminergic neurons” and the “neuron protection by measurement” value ([2]; 50 μM) was “neuron protection”. For the same compound, the “Dopamine uptake, % control, Mean” value ([2]; 50 μM, medium change model) was 170.1%, the “Dopamine uptake, counts/min, Mean” value ([2]; 50 μM, medium change model) was 35714 counts/min and the “Dopamine uptake, % control, individual cultures” value [2, 11] was 181.2% and 162.6% and 175.3% and 161.3%. The “Dopamine uptake, counts/min, individual cultures” value [2, 11] was 38053 counts/min and 34130 counts/min and 36810 counts/min and 33863 counts/min, the “Survival of TH positive cells, % cont.” value ([8]; 0.5 μM) was 185.81% and the “Survival of TH positive cells, Mean cells/cm^2” value (“Survival … Mean cells/cm^2” below) ([8]; 0.5 μM) was 201.70 ± 25.01 cells/cm^2. The “Survival of TH positive cells, % cont.” value ([8]; 5 μM) was 218.33%, the “Survival … Mean cells/cm^2” value ([8]; 5 μM) was 237.00 ± 12.59 cells/cm^2 and the “Survival of TH positive cells, % cont.” value ([8]; 50 μM) was 269.25%. For the same compound, the “Survival … Mean cells/cm^2” value ([8]; 50 μM) was 292.28 ± 17.41 cells/cm^2, the IC50 (MAO-A [9]) was 2500 nM and the inhibition at 0.3 µM (MAO-A [9]; 300 nM, guinea pig hippocampus, read-out: MAO-A % Inhibition x = SEM) was 11.9 ± 2.4%. The inhibition at 1 µM (MAO-A [9]; 1 μM, guinea pig hippocampus, read-out: MAO-A % Inhibition x = SEM) was 22.1 ± 1.2%, the inhibition at 3 µM (MAO-A [9]; 3 μM, guinea pig hippocampus, read-out: MAO-A % Inhibition x = SEM) was 53.5 ± 2.7% and the “reduction in potency compared to selegiline (value in parentheses)” value (MAO-A [9]; MAO-A IC50, guinea pig hippocampal cortex) was 1.

For `C#CCN(C)CCCOc1ccc(Cl)cc1Cl` [clorgyline, reference compound], the “neuron protection by measurement” value ([2]; 50 μM) was “protected”.
